B1: D1: Isolated amidase domain (178-397), SEQ ID NO:20 (protein)
chain: MQAPKQKVKKASTKKALPKITKHITGYNMDKRGYNPKGVVLHNDAGGMNYKQYYNNLVNANYDRLARGIAHAYVDRTGIWEAIDESRIAWHVADGTRPGSGNHDFYGIEVNQSLRASDKEFLENEQAVFQFAAEKLKKWGLPANRNTVRLHNEFSQTSCPHRSMVLHTGLDPLYHSITEHARLKLKDYFIKQIRAYMDGKKPTSKVVVSKPGSASTPATRKLEHHHHHH
modifications: Bacteriophage Phi SH2
B2: E1: Amidase plus SH3b domain (178-493), SEQ ID NO:24 (protein)
chain: MQAPKQKVKKASTKKALPKITKHITGYNMDKRGYNPKGVVLHNDAGGMNYKQYYNNLVNANYDRLARGIAHAYVDRTGIWEAIDESRIAWHVADGTRPGSGNHDFYGIEVNQSLRASDKEFLENEQAVFQFAAEKLKKWGLPANRNTVRLHNEFSQTSCPHRSMVLHTGLDPLYHSITEHARLKLKDYFIKQIRAYMDGKKPTSKVVVSKPGSASTPATRKDANGYRENPHGTLYKEEHATFTANANIITRYVGPFTNMPQAGILKAGQTIIYDEVMKQDGYIWVGYTAYNGKRVYLPVRKWNRETDSVGKLWGVISLEHHHHHH
modifications: Bacteriophage Phi SH2
B3: B1: Fusion of intact φSH2 CHAP and SH3b domains (1-166 + 341-493), SEQ ID NO:12 (protein)
chain: MKTQAEINKRLDAYRKGTVDSPYRVKVWTSYDNRFYPMEPGCIDVDKSFHAQCADLTIDYILWLTDNEFRIRGNAKDAINPKKNKLPEGWKIVLNRPSTVPRKGWIAVFTDGTYWEYGHIGMVYDGGNTSRFQILEQNWNGWANKKPSLRWDNYYGLTHFIVPPVALEVLHTGLDPLYHSITEHARLKLKDYFIKQIRAYMDGKKPTSKVVVSKPGSASTPATRKDANGYRENPHGTLYKEEHATFTANANIITRYVGPFTNMPQAGILKAGQTIIYDEVMKQDGYIWVGYTAYNGKRVYLPVRKWNRETDSVGKLWGVISLEHHHHHH
modifications: Bacteriophage Phi SH2
B4: C1: CHAP plus amidase domain, lacks SH3b (1-397), SEQ ID NO:16 (protein)
chain: MKTQAEINKRLDAYRKGTVDSPYRVKVWTSYDNRFYPMEPGCIDVDKSFHAQCADLTIDYILWLTDNEFRIRGNAKDAINPKKNKLPEGWKIVLNRPSTVPRKGWIAVFTDGTYWEYGHIGMVYDGGNTSRFQILEQNWNGWANKKPSLRWDNYYGLTHFIVPPVAKENKAVSSSKQQAPKQKVKKASTKKALPKITKHITGYNMDKRGYNPKGVVLHNDAGGMNYKQYYNNLVNANYDRLARGIAHAYVDRTGIWEAIDESRIAWHVADGTRPGSGNHDFYGIEVNQSLRASDKEFLENEQAVFQFAAEKLKKWGLPANRNTVRLHNEFSQTSCPHRSMVLHTGLDPLYHSITEHARLKLKDYFIKQIRAYMDGKKPTSKVVVSKPGSASTPATRKLEHHHHHH
modifications: Bacteriophage Phi SH2

What was measured:
[1] = test system: MRSA strain NRS382; experiment: Control of systemic MRSA infection in a murine model; format: in vivo, Balb/c mice
[2] = test system: S. aureus Newman cells; experiment: Turbidity reduction assay; format: cell-based, Staphylococcus aureus; conditions: 1 μM protein; for lytic activity in turbidity reduction assays (in words): different NaCl concentrations; for lytic (specific) activity compared with the full length φSH2 lysin: at optimum salt concentration
Protocol: The turbidity reduction assay measures a decrease in optical density of a bacterial suspension due to lysis of the target bacteria by a lytic protein. The assays were performed in a 96-well dish format essentially as described previously (Donovan et al. 2006, supra). In order to reduce the variability of the assay, frozen stocks of S. aureus Newman substrate cells were prepared in a large batch as described by Becker et al. (2009b, supra). Immediately prior to the assay, the frozen cells were thawed, washed, and resuspended in the desired assay buffer such that when 100 μl of cell suspension were added to 100 μl of lysis buffer+/−protein, the final suspension has an OD600nm of ˜1.0.
Protein constructs were assayed at a concentration of 1 μM, and the assay was performed at room temperature, measuring the OD600nm at 1 min intervals for 45 min. Buffer without enzyme served as the control. The steepest slopes of the resulting lysis curves, which correspond to the lytic activities of the proteins, were determined by a sliding window over each group of three consecutive time points for the entire 45 min period. Specific activities were expressed as ΔOD600nm/min/μM, and the “no enzyme” control value was subtracted from each experimental value.
In order to determine the effect of salt concentration on lytic activity, turbidity reduction assays were performed in 10 mM Tris buffers at pH 7.5 with varying NaCl concentrations between 0 mM and 600 mM. Accordingly, the influence of pH was determined by using a series of different buffers with pH values ranging from 3.5 to 10.0. Citrate buffers were used for pH 3.5, 4.5, 5.5, and 6.0, MOPS buffers for pH 6.5, 7.0, and 7.5, Tris buffers for pH 8.0 and 9.0, and Carbonate/bicarbonate buffer for pH 10.0. The concentration of the buffer substance in all buffers used was 20 mM, and the NaCl concentration was 200 mM. To test the effect of bivalent metal ions, assays were performed in 10 mM Tris, 200 mM NaCl, pH 7.5 supplemented with MgCl2, MnCl2, or CaCl2 at different concentrations (0.1 mM, 1 mM, 10 mM), buffer without metal ions serving as control.

[3] = test system: S. aureus Newman cells; experiment: Zymogram with S. aureus Newman cells embedded in the gel; format: cell-based; conditions: 5 μg protein
Protocol: All purified proteins were analyzed with 15% SDS-PAGE, using a Kaleidoscope Precision Plus Protein Standard (BioRad, Hercules, Calif.). For zymograms, a 300 mL culture volume equivalent of live mid-log phase (OD600nm=0.4-0.6) cells of S. aureus strain Newman was embedded in the gel during polymerization. The protein samples were boiled in Laemmli sample buffer (BioRad) with β-mercaptoethanol, and electrophoresed with identical buffers and voltage for one hour in both the SDS-PAGE and the zymogram using a Mini-Protean TETRA gel system (BioRad). SDS gels were Coomassie stained and zymograms were washed in excess water and further incubated in deionized water for 60 min, followed by incubation in 10 mM Tris, pH 8.0 with 150 mM or 300 mM NaCl for 80 min. Areas of clearing in the turbid zymogram gel indicate a lytic protein in the gel.

[4] = 0 hours, mice infected i.p. with MRSA NRS382, treated 30 min post infection (φSH2 200 μg/mouse i.p.; Vancomycin 375 μg/mouse s.c.; Oxacillin 1250 μg/mouse s.c.)
[5] = 4 hours, same infection and treatment
[6] = 8 hours, same infection and treatment
[7] = 12 hours, same infection and treatment
[8] = 16 hours, same infection and treatment
[9] = 20 hours, same infection and treatment
[10] = 24 hours, same infection and treatment
[11] = 28 hours, same infection and treatment
[12] = 32 hours, same infection and treatment
[13] = 36 hours, same infection and treatment
[14] = 40 hours, same infection and treatment
[15] = 44 hours, same infection and treatment
[16] = water 60 min, then 10 mM Tris, 150 mM NaCl, pH 8.0 up to 80 min
[17] = after incubation in deionized water for 60 min

Row | Molecule | % Survival [1, 4] [%] | % Survival [1, 5] [%] | % Survival [1, 6] [%] | % Survival [1, 7] [%] | % Survival [1, 8] [%] | % Survival [1, 9] [%] | % Survival [1, 10] [%] | % Survival [1, 11] [%] | % Survival [1, 12] [%] | % Survival [1, 13] [%] | % Survival [1, 14] [%] | % Survival [1, 15] [%] | lytic activity in turbidity reduction assays (in words) [2] | lytic (specific) activity compared with the full length φSH2 lysin [2] | lysis in zymogram [3, 16] | lysis in zymogram [3, 17] | also measured
1 | Cc1onc(-c2ccccc2)c1C(=O)N[C@@H]1C(=O)N2[C@@H]1SC(C)(C)[C@@H]2C(=O)O [Oxacillin] | 100 | 100 | 100 | 100 | 100 | 40 | 40 | 30 | 30 | 30 | 30 | 30 |  |  |  |  | survival rate ([1]; after 16 to 20 hours, Oxacillin 1250 μg/mouse s.c. 30 min post infection): less than 40%
2 | CN[C@H](CC(C)C)C(=O)N[C@H]1C(=O)N[C@@H](CC(N)=O)C(=O)N[C@H]2C(=O)N[C@H]3C(=O)N[C@H](C(=O)N[C@H](C(=O)O)c4cc(O)cc(O)c4-c4cc3ccc4O)[C@H](O)c3ccc(c(Cl)c3)Oc3cc2cc(c3O[C@@H]2O[C@H](CO)[C@@H](O)[C@H](O)[C@H]2O[C@H]2C[C@](C)(N)[C@H](O)[C@H](C)O2)Oc2ccc(cc2Cl)[C@H]1O [Vancomycin] | 100 | 100 | 100 | 100 | 100 | 100 | 100 | 100 | 100 | 100 | 100 | 100 |  |  |  |  | % Survival ([1]; 48 hours (end of the experiment), same infection and treatment): 100%
3 | B1 |  |  |  |  |  |  |  |  |  |  |  |  | only background levels of activity |  |  |  | lysis in zymogram ([3]; water 60 min, then 10 mM Tris, 300 mM NaCl, pH 8.0 for 80 min): pronounced lytic band
4 | B2 |  |  |  |  |  |  |  |  |  |  |  |  |  | about half the activity | only very faint lysis |  | 
5 | B3 |  |  |  |  |  |  |  |  |  |  |  |  | completely abolished its activity |  | considerably weaker | faint zones of lysis | 
6 | B4 |  |  |  |  |  |  |  |  |  |  |  |  | drastically reduced activity | about half the activity | considerably weaker | faint zones of lysis | 

From patent US8980614B2, “Staphylococcus haemolyticus prophage φSH2 endolysin is lytic for Staphylococcus aureus” (The United States of America, as represented by The …, priority 2012, dated 2015)
